Measured values taken from patent US6080791A, “Method of treating a viral condition by inhibiting membrane fusion” (priority 1992, dated 2000).
Like-named read-outs stand apart in the source and are kept apart here.

Key:
[1] = target: hemagglutinin (BHA), fusion peptide exposure (Influenza A virus (A/X-31(H3N2)), UniProt P03438); format: biochemical, C22 / X31 influenza virus (H3N2)
[2] = test system: hemagglutinin-mediated hemolysis of human red blood cells; test: Hemolysis (HEM) assay; format: cell-based, C22 influenza virus; human red blood cells; details: for IC50 / inhibition at 1000 µM / inhibition at 100 µM / inhibition at 10 µM / inhibition at 1 µM: unidentified influenza virus, Erythrocyte; for inhibition at 1000 µM: log conc -3 (M); for inhibition at 10 µM: log conc -5 (M); for inhibition at 1 µM: log conc -6 (M)
hemoglobin = test: Hb control (quenching of OD570 of hemoglobin); set-up: species or system human
in vitro = details: dog, mdck
Description: The ELISA-based assay described below (EIA antiviral assay) was used to measure antiviral activity. Cell viability was measured in parallel to distinguish inhibition of viral replication from toxicity.
Infections of MDCK2 cells with virus, compounds, and DMSO were set up identically as for the EIA assay. Following the 15 hour incubation, test compounds were washed away with PBS. 50 μl of MDCK2 growth media and 25 μl 2 mg/ml 3-(4,5-dimethylthiazol-2-yl)-2,5-diphenyl tetrazolium bromide (Sigma) in PBS were added to each well. Plates were returned to 37° C., 5% CO2 for 4 hrs. Crystals were broken up by vigorous mixing following addition of 80 μl isopropanol/0.04 N HCl. After incubation for 30 mins at RT, OD570 was read on an ELISA reader. % Inhibition is the % reduction of OD570 in the wells infected with compound compared to otherwise identical samples with compound omitted.

C22 virus in MDCK2 cells = test: microbe, parasite or virus in culture; details: unidentified influenza virus; for inhibition at 1 µM / inhibition at 10 µM / inhibition at 100 µM: MDCK2, 15 h, read-out: infectivity % inhibition
low pH BHA = test: SPA POST control (nonspecific quenching); set-up: species or system C22 / X31 influenza virus (H3N2)
Description: The compounds being screened by SPA are present during scintillation counting. Some of the chemicals, particularly those that are highly colored, quench the detection of radioactivity. A control ("POST") distinguishes whether apparent inhibition arises from inhibition of the conformational change or from nonspecific effects. The test compound is added to a sample of BHA that had previously been acidified and reneutralized. The mixture is then precipitated as usual. Since the BHA treated in this manner is known to be in the low pH conformation, a reduction in measurable cpm compared to controls with ligand omitted proves the compound interferes with the detection system.
^3 H-Leu BHA was diluted to 10,000 cpm (counts per minute) per 200 μl in MSSH buffer (10 mM HEPES, 10 mM MES, 10 mM succinate, 0.10 M NaCl, pH 7.0) containing 0.1% NP40. Protein was incubated with the specified concentration of trial compound for 25 minutes at RT. The same volume of solvent used to dissolve the compound was added to control samples and the final concentration of DMSO in all solutions was 0.67% v/v. A predetermined amount of 1N HAc was added to bring the reactions to the appropriate pH (usually pH 5.0). Following a 5 minute (unless specified otherwise) incubation at RT, reactions were reneutralized with 1N NaOH. For POST controls, compounds were added to the appropriate concentration after reneutralization. 200 μL aliquots of the protein solution were added to scintillation vials containing 100 μl protein A-SPA beads (Amersham), 5% fetal bovine serum (FBS), and antibody. Vials were incubated overnight at RT with constant shaking. Each reaction used 10 μl of fusion peptide antiserum diluted 1:10 with 50% glycerol. Cpm were detected in a Beckman LS3801 scintillation counter without addition of liquid scintillant.
Apparent inhibition due to nonspecific effects was quantitated from the POST controls with the equation:
observed cpm=true cpm*quench factor

[3] = 0.25 h, Table 6, 10^-3 = 1 mM, low pH 15 minutes, read-out: IC50 hemolysis
[4] = Table 7, preliminary results, read-out: HEM, negative log of IC50 (preliminary results) (converted)
[5] = log conc -4 (M), read-out: hemolysis % ↓ OD
[6] = MDCK2, read-out: INF, negative log of IC50 (preliminary results) (converted)

Sequence of hemagglutinin (BHA), fusion peptide exposure (Influenza A virus (A/X-31(H3N2)), UniProt P03438) (P03438 whole entry, looked up, the tested form may be a part): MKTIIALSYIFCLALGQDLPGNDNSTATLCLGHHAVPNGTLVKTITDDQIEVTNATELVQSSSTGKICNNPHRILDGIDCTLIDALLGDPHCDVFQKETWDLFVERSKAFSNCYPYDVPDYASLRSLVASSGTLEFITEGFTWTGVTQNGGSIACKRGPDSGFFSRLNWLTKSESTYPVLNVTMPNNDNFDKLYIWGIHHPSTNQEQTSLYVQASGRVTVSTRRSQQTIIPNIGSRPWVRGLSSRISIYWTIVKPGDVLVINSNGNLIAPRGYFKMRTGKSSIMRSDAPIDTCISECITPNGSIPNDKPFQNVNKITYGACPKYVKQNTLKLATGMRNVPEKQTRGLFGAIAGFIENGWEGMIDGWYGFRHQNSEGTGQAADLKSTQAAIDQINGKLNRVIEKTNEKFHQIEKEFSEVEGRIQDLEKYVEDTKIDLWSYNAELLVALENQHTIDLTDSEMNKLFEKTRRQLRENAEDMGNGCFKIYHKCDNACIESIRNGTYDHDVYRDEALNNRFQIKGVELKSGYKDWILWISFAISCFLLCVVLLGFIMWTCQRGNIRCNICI

O=C1NC(=O)c2ccccc21 [Compound 100, phthalimide]
inhibition in the SPA assay ([1]; 1 μM-1 mM): showed no inhibition
activity note in Table 7 ([1]; Table 7): inactive

COC(=O)C1C2C=CC(C2)C1C(=O)O (centres unmarked) [Compound 87, 5-norbornene-2,3-dicarboxylic acid monomethyl ester]
inhibition in the SPA assay ([1]; 1 μM-1 mM): showed no inhibition

Oc1cccc2c(O)cccc12 [Compound 126, 1,5-naphthalenediol]
inhibition of hemolytic activity [2]: apparently inhibited hemolytic activity
IC50 [2, 3]: 1000 µM
IC50 ([2]; Table 7, read-out: HEM, negative log of IC50 (converted)): 1000 µM
inhibition at 1000 µM ([2]; read-out: hemolysis % ↓ OD): 101 ± 7.6%
Hb control % ↓ OD (hemoglobin; log conc -3 (M)): 54.4 ± 3.7%
cytotoxicity at 15 h, 1 µM (in vitro): -6.9 ± 4%
cytotoxicity at 15 h, 10 µM (in vitro): -9.2 ± 0.6%
cytotoxicity at 15 h, 100 µM (in vitro): -7.6 ± 7.3%
inhibition at 1 µM (C22 virus in MDCK2 cells): 3.8 ± 5.5%
inhibition at 10 µM (C22 virus in MDCK2 cells): 7.4 ± 1.8%
inhibition at 100 µM (C22 virus in MDCK2 cells): 35.6 ± 0.6%
IC50 (C22 virus in MDCK2 cells; MDCK2, read-out: IC50 infectivity): > 100 µM
IC50 (C22 virus in MDCK2 cells; MDCK2, read-out: INF, negative log of IC50 (converted)): > 100 µM

COC(=O)C1C2C=CC(C2)C1C(=O)OC (centres unmarked) [Compound 85, dimethylbicyclo[2.2.1]-5-heptene-2,3-dicarboxylate]
inhibition in the SPA assay ([1]; 1 μM-1 mM): showed no inhibition

Cl.N=C(N)Sc1cc(O)ccc1O [Compound 112, 2-(2,5-dihydroxyphenyl)-2-thiopseudourea hydrochloride]
% inhibition, sample [1]: 40.1%

OC1CC2CC1C1C3C=CC(C3)C21 (centres unmarked) [Compound 96, 1,2,3,4,4A,5,8,8A-octahydro-1,4:5,8-dimethano-2-naphthol]
inhibition in the SPA assay ([1]; 1 μM-1 mM): showed no inhibition

CN1C(=O)C2C3C=CC(C3)C2C1=O (centres unmarked) [Compound 95, N-methyl-5-norbornene-2,3-dicarboximide]
inhibition in the SPA assay ([1]; 1 μM-1 mM): showed no inhibition
activity note in Table 7 ([1]; Table 7): inactive

O=C(O)[C@@H]1[C@H](C(=O)O)[C@@H]2C=C[C@H]1C2 [Compound 89, cis-5-norbornene-endo-2,3-dicarboxylic acid]
inhibition in the SPA assay ([1]; 1 μM-1 mM): showed no inhibition
activity note in Table 7 ([1]; Table 7): inactive

O=C(O)C1C=CCC2C(=O)C=CC(=O)C12 (centres unmarked) [Compound 91, 5,8-dioxo-1,4,4A,5,8,8A-hexahydro-1-naphthalene carboxylic acid]
% inhibition, POST control (low pH BHA; log conc -3 (M)): 54.5%
inhibition of hemolytic activity [2]: apparently inhibited hemolytic activity
inhibition at 100 µM ([2]; 0.1 mM, pH 5.0, FIG. 8, read-out: Maximum inhibition of hemolysis): 61%
IC50 [2, 4]: 100 to 1000 µM
inhibition at 1000 µM ([2]; read-out: hemolysis % ↓ OD): 91 ± 14.6%
inhibition at 100 µM [2, 5]: 60.5 ± 0.7%
inhibition at 10 µM ([2]; read-out: hemolysis % ↓ OD): 13.2%
inhibition at 1 µM ([2]; read-out: hemolysis % ↓ OD): -5.1%
Hb control % ↓ OD (hemoglobin; log conc -3 (M)): 29.6 ± 2.5%
Hb control % ↓ OD (hemoglobin; log conc -4 (M)): 26.8 ± 5.0%
Hb control % ↓ OD (hemoglobin; log conc -5 (M)): 11%
Hb control % ↓ OD (hemoglobin; log conc -6 (M)): 3%
cytotoxicity at 15 h, 1 µM (in vitro): -0.06 ± 5.1%
cytotoxicity at 15 h, 10 µM (in vitro): -2 ± 9.4%
cytotoxicity at 15 h, 100 µM (in vitro): -4.3 ± 7%
inhibition at 1 µM (C22 virus in MDCK2 cells): -1.3 ± 4%
inhibition at 10 µM (C22 virus in MDCK2 cells): 6.5 ± 7%
inhibition at 100 µM (C22 virus in MDCK2 cells): 70.9 ± 39.8%
IC50 (C22 virus in MDCK2 cells; [6]): 10 to 100 µM

Oc1cccc2ccccc12 [Compound 106, 1-naphthol]
inhibition in the SPA assay ([1]; 1 μM-1 mM): showed no inhibition
activity note in Table 7 ([1]; Table 7): inactive

O=C1C=C(Br)C(=O)c2ccccc21 [Compound 135, 2-bromo-1,4-naphthoquinone]
inhibition of hemolytic activity [2]: did not
IC50 [2, 3]: > 1000 µM
inhibition at 1000 µM ([2]; read-out: hemolysis % ↓ OD): 80.3%
Hb control % ↓ OD (hemoglobin; log conc -3 (M)): 75.2%

COC(=O)C1C=CCC2C(=O)C=CC(=O)C12 (centres unmarked) [Compound 97, methyl 5,8-dioxo-1,4,4A,5,8,8A-hexahydro-1-naphthalenecarboxylate]
inhibition of hemolytic activity [2]: apparently inhibited hemolytic activity
IC50 [2, 4]: 100 µM
inhibition at 1000 µM ([2]; read-out: hemolysis % ↓ OD): 102 ± 5.8%
inhibition at 100 µM [2, 5]: 94.6%
inhibition at 10 µM ([2]; read-out: hemolysis % ↓ OD): 23.7%
inhibition at 1 µM ([2]; read-out: hemolysis % ↓ OD): 6.6%
Hb control % ↓ OD (hemoglobin; log conc -3 (M)): 55.0 ± 13.3%
Hb control % ↓ OD (hemoglobin; log conc -4 (M)): 37.6 ± 4.9%
Hb control % ↓ OD (hemoglobin; log conc -5 (M)): 31%
Hb control % ↓ OD (hemoglobin; log conc -6 (M)): 13.0%
cytotoxicity at 15 h, 1 µM (in vitro): -3.1 ± 7.9%
cytotoxicity at 15 h, 10 µM (in vitro): 32.9 ± 30.9%
cytotoxicity at 15 h, 100 µM (in vitro): 95.9 ± 8%
inhibition at 1 µM (C22 virus in MDCK2 cells): -4.7 ± 9.4%
inhibition at 10 µM (C22 virus in MDCK2 cells): 92.6 ± 12.7%
IC50 (C22 virus in MDCK2 cells; [6]): 1 to 10 µM

Oc1ccc(O)c2c1C1C=CC2C1 [Compound 83A, 5,8-dihydro-5,8-methano-1,4-naphthalenediol]
SPA activity [1]: significantly higher activity
% inhibition, POST control (low pH BHA; log conc -3 (M)): 0.5 ± 1.1%
% inhibition, POST control (low pH BHA; log conc -4 (M)): -0.9 ± 1.5%
% inhibition, POST control (low pH BHA; log conc -5 (M)): -0.5%
% inhibition, POST control (low pH BHA; log conc -6 (M)): 10.8%

Oc1cccc2cccnc12 [Compound 127, 8-hydroxyquinoline]
activity note in Table 7 [1]: inactive
inhibition in the SPA assay [1]: showed no inhibition
